Measurements from patent US9145373B2, “Certain kynurenine-3-monooxygenase inhibitors, pharmaceutical compositions, and methods of use thereof” (CHDI FOUNDATION, INC., priority 2008, dated 2015).

biological target: T1, KMO mouse enzyme (Mus musculus, UniProt Q91WN4); assay: KMO mouse enzyme assay: L-Kynurenine hydroxylation to 3-Hydroxy-Kynurenine monitored by LC/MS (MRM); format: biochemical; conditions: compound at 10 μM; KMO enzyme from mouse liver mitochondria; read-out: INH.Mouse @ 10 μM
T1 construct: KMO enzyme prepared at Evotec from mouse liver (4-6 weeks old) via mitochondria isolation; from tissue; host or cells: mouse liver (4-6 weeks old), mitochondria isolation, prepared at Evotec
T1 sequence (Q91WN4 whole entry): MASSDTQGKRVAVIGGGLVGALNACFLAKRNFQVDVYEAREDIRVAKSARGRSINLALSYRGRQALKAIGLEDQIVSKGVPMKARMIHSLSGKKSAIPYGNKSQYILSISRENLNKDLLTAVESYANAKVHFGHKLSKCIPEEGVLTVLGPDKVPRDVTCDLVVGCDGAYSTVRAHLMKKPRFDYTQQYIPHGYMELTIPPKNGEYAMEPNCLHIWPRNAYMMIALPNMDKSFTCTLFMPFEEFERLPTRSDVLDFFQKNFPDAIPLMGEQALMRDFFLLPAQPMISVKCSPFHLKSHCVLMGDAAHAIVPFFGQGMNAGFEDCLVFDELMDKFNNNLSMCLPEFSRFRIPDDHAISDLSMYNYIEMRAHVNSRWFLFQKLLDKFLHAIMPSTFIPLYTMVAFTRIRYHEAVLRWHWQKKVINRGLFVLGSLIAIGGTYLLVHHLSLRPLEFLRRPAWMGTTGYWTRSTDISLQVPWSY
Experimental: A method of monitoring L-Kynurenine (KYN) hydroxylation to form 3-Hydroxy-Kynurenine (3OH-KYN) by LC/MS is described. Product is quantified by multiple reaction monitoring (MRM method).
• Compound: Stock concentrations: 10 mM in 100% DMSO • Enzyme: KMO enzyme prepared at Evotec from mouse liver (4-6 weeks old) via mitochondria isolation as described in the literature • Substrate: L-Kynurenine (Sigma: Cat# K3750, stock concentration: 10 mM in 100 mM potassium phosphate buffer, pH 7.4) Assay Conditions: […]

Structure (SMILES)	inhibition at 10 µM
O=C(Nc1cccnc1)c1cc(-c2ccc(C(F)(F)F)c(Cl)c2)ncn1 [6-(3-Chloro-4-trifluoromethyl-phenyl)-pyrimidine-4-carboxylic acid pyridin-3-ylamide]	48.3%
COC(=O)c1cc(-c2cccc(Cl)c2)nc(C)n1 [6-(3-Chloro-phenyl)-2-methyl-pyrimidine-4-carboxylic acid methyl ester]	100%
Cc1nc(C(=O)O)cc(-c2cccc(Cl)c2)n1 [6-(3-Chloro-phenyl)-2-methyl-pyrimidine-4-carboxylic acid]	100%
Cn1ccc(NC(=O)c2cc(-c3cccc(Cl)c3)ncn2)n1 [6-(3-Chloro-phenyl)-pyrimidine-4-carboxylic acid (1-methyl-1H-pyrazol-3-yl)-amide]	100%
Cn1cc(NC(=O)c2cc(-c3cccc(Cl)c3)ncn2)cn1 [6-(3-Chloro-phenyl)-pyrimidine-4-carboxylic acid (1-methyl-1H-pyrazol-4-yl)-amide]	100%
O=C(Nc1ccc2c(c1)OC(F)(F)O2)c1cc(-c2cccc(Cl)c2)ncn1 [6-(3-Chloro-phenyl)-pyrimidine-4-carboxylic acid (2,2-difluoro-benzo[1,3]dioxol-5-yl)-amide]	97.7%
CN(C(=O)c1cc(-c2cccc(Cl)c2)ncn1)c1ccc2c(c1)OC(F)(F)O2 [6-(3-Chloro-phenyl)-pyrimidine-4-carboxylic acid (2,2-difluoro-benzo[1,3]dioxol-5-yl)-methyl-amide]	98.7%
O=C(NCCO)c1cc(-c2cccc(Cl)c2)ncn1 [6-(3-Chloro-phenyl)-pyrimidine-4-carboxylic acid (2-hydroxy-ethyl)-amide]	95.8%
COc1ccccc1NC(=O)c1cc(-c2cccc(Cl)c2)ncn1 [6-(3-Chloro-phenyl)-pyrimidine-4-carboxylic acid (2-methoxy-phenyl)-amide]	100%
Cc1ncccc1NC(=O)c1cc(-c2cccc(Cl)c2)ncn1 [6-(3-Chloro-phenyl)-pyrimidine-4-carboxylic acid (2-methyl-pyridin-3-yl)-amide]	97.8%
Cc1noc(C)c1NC(=O)c1cc(-c2cccc(Cl)c2)ncn1 [6-(3-Chloro-phenyl)-pyrimidine-4-carboxylic acid (3,5-dimethyl-isoxazol-4-yl)-amide]	79%
COc1cccc(NC(=O)c2cc(-c3cccc(Cl)c3)ncn2)c1 [6-(3-Chloro-phenyl)-pyrimidine-4-carboxylic acid (3-methoxy-phenyl)-amide]	97.1%
Cc1nsc(NC(=O)c2cc(-c3cccc(Cl)c3)ncn2)n1 [6-(3-Chloro-phenyl)-pyrimidine-4-carboxylic acid (3-methyl-[1,2,4]thiadiazol-5-yl)-amide]	85.4%
Cc1cc(NC(=O)c2cc(-c3cccc(Cl)c3)ncn2)on1 [6-(3-Chloro-phenyl)-pyrimidine-4-carboxylic acid (3-methyl-isoxazol-5-yl)-amide]	100%
O=C(Nc1ccc(F)cc1)c1cc(-c2cccc(Cl)c2)ncn1 [6-(3-Chloro-phenyl)-pyrimidine-4-carboxylic acid (4-fluoro-phenyl)-amide]	98.9%
COc1ccc(NC(=O)c2cc(-c3cccc(Cl)c3)ncn2)cc1 [6-(3-Chloro-phenyl)-pyrimidine-4-carboxylic acid (4-methoxy-phenyl)-amide]	100%
COc1ccc(N(C)C(=O)c2cc(-c3cccc(Cl)c3)ncn2)cc1 [6-(3-Chloro-phenyl)-pyrimidine-4-carboxylic acid (4-methoxy-phenyl)-methyl-amide]	100%
COc1ccncc1NC(=O)c1cc(-c2cccc(Cl)c2)ncn1 [6-(3-Chloro-phenyl)-pyrimidine-4-carboxylic acid (4-methoxy-pyridin-3-yl)-amide]	91%
O=C(Nc1ccc(N2CCOCC2)cc1)c1cc(-c2cccc(Cl)c2)ncn1 [6-(3-Chloro-phenyl)-pyrimidine-4-carboxylic acid (4-morpholin-4-yl-phenyl)-amide]	93.6%
COc1cncc(NC(=O)c2cc(-c3cccc(Cl)c3)ncn2)c1 [6-(3-Chloro-phenyl)-pyrimidine-4-carboxylic acid (5-methoxy-pyridin-3-yl)-amide]	100%
Cc1nnc(NC(=O)c2cc(-c3cccc(Cl)c3)ncn2)o1 [6-(3-Chloro-phenyl)-pyrimidine-4-carboxylic acid (5-methyl-[1,3,4]oxadiazol-2-yl)-amide]	100%
COc1ccc(NC(=O)c2cc(-c3cccc(Cl)c3)ncn2)cn1 [6-(3-Chloro-phenyl)-pyrimidine-4-carboxylic acid (6-methoxy-pyridin-3-yl)-amide]	93.4%
Cc1ccc(NC(=O)c2cc(-c3cccc(Cl)c3)ncn2)cn1 [6-(3-Chloro-phenyl)-pyrimidine-4-carboxylic acid (6-methyl-pyridin-3-yl)-amide]	85.3%
O=C(Nc1ccc(C(F)(F)F)nc1)c1cc(-c2cccc(Cl)c2)ncn1 [6-(3-Chloro-phenyl)-pyrimidine-4-carboxylic acid (6-trifluoromethyl-pyridin-3-yl)-amide]	89.1%

Structure (SMILES)	inhibition at 10 µM
C[C@@H](NC(=O)c1cc(-c2cccc(Cl)c2)ncn1)c1ccccc1 [6-(3-Chloro-phenyl)-pyrimidine-4-carboxylic acid ((R)-1-phenyl-ethyl)-amide]	99.2%
C[C@@H](O)CNC(=O)c1cc(-c2cccc(Cl)c2)ncn1 [6-(3-Chloro-phenyl)-pyrimidine-4-carboxylic acid ((R)-2-hydroxy-propyl)-amide]	74.3%
C[C@H](NC(=O)c1cc(-c2cccc(Cl)c2)ncn1)c1ccccc1 [6-(3-Chloro-phenyl)-pyrimidine-4-carboxylic acid ((S)-1-phenyl-ethyl)-amide]	99.8%
C[C@H](O)CNC(=O)c1cc(-c2cccc(Cl)c2)ncn1 [6-(3-Chloro-phenyl)-pyrimidine-4-carboxylic acid ((S)-2-hydroxy-propyl)-amide]	87.3%
O=C(NCc1cccnc1)c1cc(-c2cccc(Cl)c2)ncn1 [6-(3-Chloro-phenyl)-pyrimidine-4-carboxylic acid (pyridin-3-ylmethyl)-amide]	96.7%
O=C(NCc1ccncc1)c1cc(-c2cccc(Cl)c2)ncn1 [6-(3-Chloro-phenyl)-pyrimidine-4-carboxylic acid (pyridin-4-ylmethyl)-amide]	100%
O=C(Nc1nncs1)c1cc(-c2cccc(Cl)c2)ncn1 [6-(3-Chloro-phenyl)-pyrimidine-4-carboxylic acid [1,3,4]thiadiazol-2-ylamide]	97.4%
NC(=O)c1cc(-c2cccc(Cl)c2)ncn1 [6-(3-Chloro-phenyl)-pyrimidine-4-carboxylic acid amide]	77.5%
O=C(NCc1ccccc1)c1cc(-c2cccc(Cl)c2)ncn1 [6-(3-Chloro-phenyl)-pyrimidine-4-carboxylic acid benzylamide]	67%
CN(C)C(=O)c1cc(-c2cccc(Cl)c2)ncn1 [6-(3-Chloro-phenyl)-pyrimidine-4-carboxylic acid dimethylamide]	100%
CCNC(=O)c1cc(-c2cccc(Cl)c2)ncn1 [6-(3-Chloro-phenyl)-pyrimidine-4-carboxylic acid ethylamide]	100%
CC(C)NC(=O)c1cc(-c2cccc(Cl)c2)ncn1 [6-(3-Chloro-phenyl)-pyrimidine-4-carboxylic acid isopropylamide]	100%
O=C(Nc1ccon1)c1cc(-c2cccc(Cl)c2)ncn1 [6-(3-Chloro-phenyl)-pyrimidine-4-carboxylic acid isoxazol-3-ylamide]	100%
Cc1cccc(NC(=O)c2cc(-c3cccc(Cl)c3)ncn2)c1 [6-(3-Chloro-phenyl)-pyrimidine-4-carboxylic acid m-tolylamide]	96.6%
COC(=O)c1cc(-c2cccc(Cl)c2)ncn1 [6-(3-Chloro-phenyl)-pyrimidine-4-carboxylic acid methyl ester]	106%
Cc1ccc(N(C)C(=O)c2cc(-c3cccc(Cl)c3)ncn2)cc1 [6-(3-Chloro-phenyl)-pyrimidine-4-carboxylic acid methyl-p-tolyl-amide]	100%
CN(C(=O)c1cc(-c2cccc(Cl)c2)ncn1)c1ccccc1 [6-(3-Chloro-phenyl)-pyrimidine-4-carboxylic acid methyl-phenyl-amide]	100%
CN(C(=O)c1cc(-c2cccc(Cl)c2)ncn1)c1cccnc1 [6-(3-Chloro-phenyl)-pyrimidine-4-carboxylic acid methyl-pyridin-3-yl-amide]	95.2%
CNC(=O)c1cc(-c2cccc(Cl)c2)ncn1 [6-(3-Chloro-phenyl)-pyrimidine-4-carboxylic acid methylamide]	100%
Cc1ccccc1NC(=O)c1cc(-c2cccc(Cl)c2)ncn1 [6-(3-Chloro-phenyl)-pyrimidine-4-carboxylic acid o-tolylamide]	96.2%
O=C(Nc1ncco1)c1cc(-c2cccc(Cl)c2)ncn1 [6-(3-Chloro-phenyl)-pyrimidine-4-carboxylic acid oxazol-2-ylamide]	100%
Cc1ccc(NC(=O)c2cc(-c3cccc(Cl)c3)ncn2)cc1 [6-(3-Chloro-phenyl)-pyrimidine-4-carboxylic acid p-tolylamide]	100%
O=C(Nc1ccccc1)c1cc(-c2cccc(Cl)c2)ncn1 [6-(3-Chloro-phenyl)-pyrimidine-4-carboxylic acid phenylamide]	100%
